Patent US20250032651A1, “[177LU] LUTETIUM-PSMA I&T COMPOSITION AND DOSIMETRY, KIT, METHOD OF MAKING, AND METHOD OF USING THEREOF” (Curium US LLC, priority 2022, published 2025)
Where “and” joins values, the source holds several entries; their conditions need not be identical. Equal entries are not always repeated.

Assay: Normal organ dosimetry Cycle 1: SPECT/CT, TIACs, OLINDA 2.2.3 absorbed radiation dose
Type: in vivo, human
Settings: individual patients/doses
Method: This Example presents the biodistribution, dosimetry, and pharmacokinetics (PK) results of a PK/Dosimetry sub-study performed as part of a Phase III trial. Twenty-seven (27) patients were administered a target activity of 7.4±10% GBq of ^177Lu-PSMA-I&T and underwent single photon emission computed tomography (SPECT)/computed tomography (CT) imaging at four timepoints (4 h, 24 h, 48 h, and 168 h). Image data was analysed to compute time-activity curves (TACs) and subsequently time-integrated activity coefficients (TIACs) in each organ of interest and in organs showing appreciable and meaningful ^177Lu-PSMA-I&T activity. Organ Level Internal Dose Assessment (OLINDA 2.2.3) was used to compute organ and whole body absorbed radiation doses for each patient.
All participating sites underwent a rigorous site setup process during which all dose calibrators, scanners, and gamma counters used in the sub-study were calibrated. Sites were allowed to enroll patients in the sub-study only after the completion and approval of all site setup processes by Invicro. Patients underwent SPECT/CT imaging, with anatomical coverage typically extending from the salivary glands to the pelvis, following the administration of a targeted 7.4±10% GBq of ^177Lu-PSMA-I&T at cycle 1. SPECT/CT imaging was performed at four timepoints: 4 h, 24 h, 48 h, and 168 h post-injection. Additionally, a subset of patients imaged at Cycle 1 (16 out of 27), were also imaged at Cycle 3 (Table 2).
The imaging data was analyzed using Invicro's VivoQuant software, a validated software used in a 21 CFR § 11-compliant workflow. The general quantification approach was based on the principles detailed in the Medical Internal Radiation Dose (MIRD) Pamphlet No. 16, No 23, and No 26 as appropriate.
Volume of interest (VOI) (kidneys, bladder, liver, lumbar vertebrae L2-L4, lacrimal glands, salivary glands [parotid and submandibular glands], and whole body) were delineated on each dataset by a trained image analyst. […] Organs were segmented either by drawing the entire contour of the organ, or by placing a sphere in a representative region of the organ and then multiplying by the organ's effective mass (based on patient's height and weight). Segmentation methods for each organ are specified in Table 3 and were consistently applied to each patient.
Clearance of the radiopharmaceutical was derived from a data-appropriate fit of each organ's TAC. Depending on the TAC's shape, the data was fitted with the sum of one, two, or three exponentials, or using a rise and fall model. Fitting was performed with in-house Python software. TIACs were calculated through analytical integration of the curve fit extrapolated to infinity. […] A whole-body TAC was derived from delineating the imaged body. The remainder activity was determined by subtracting the cumulative organ TIACs from the whole body TIAC.
Organ TIACs were input into OLINDA 2.2.3 for the computation of organ and whole-body absorbed doses, using International Commission on Radiological Protection (ICRP)-103 weighing factors. The ICRP-89 derived male phantom was used for dose estimation. Organs and body mass as defined by ICRP-89 were scaled based on height and mass using patient effective mass.^4 The voiding bladder model as implemented in OLINDA was used to determine bladder TIAC, assuming a voiding interval of 4 hours. The human alimentary tract model (HAT model) described in ICRP 100 and implemented in OLINDA was used to compute doses to the small intestine, right colon, left colon and rectum for patients showing clearance through the GI tract. The fraction of injected activity (fIA) cleared via the GI tract was determined by taking the peak fIA in the GI tract over all the imaging timepoints. […] The Red Marrow mass in L2-L4 was assumed to be 6.7% of the total red marrow mass.

O=C([O-])CC[C@H](NC(=O)N[C@@H](CCCCNC(=O)CCCCCCC(=O)NCCCC[C@@H](NC(=O)[C@@H](Cc1ccccc1)NC(=O)[C@@H](Cc1ccc(O)c(I)c1)NC(=O)CC[C@H](C(=O)[O-])N1CCN(CC(=O)[O-])CCN(CC(=O)[O-])CCN(CC(=O)[O-])CC1)C(=O)[O-])C(=O)[O-])C(=O)[O-].[177Lu+3].[H+].[H+].[H+].[H+].[H+] [Lu-177 PSMA I&T]
Kidneys absorbed dose (68.9 µg PSMA I&T content): 0.31 Gy/GBq
Kidneys absorbed dose (71.6 µg PSMA I&T content): 0.36 Gy/GBq
Kidneys absorbed dose (72.1 µg PSMA I&T content): 0.32 Gy/GBq and 0.54 Gy/GBq
Kidneys absorbed dose (76.8 µg PSMA I&T content): 0.23 Gy/GBq
Kidneys absorbed dose (77.0 µg PSMA I&T content): 0.28 Gy/GBq and 0.56 Gy/GBq
Kidneys absorbed dose (77.7 µg PSMA I&T content): 0.41 Gy/GBq
Kidneys absorbed dose (79.0 µg PSMA I&T content): 0.53 Gy/GBq
Kidneys absorbed dose (79.4 µg PSMA I&T content): 0.81 Gy/GBq
Kidneys absorbed dose (79.5 µg PSMA I&T content): 0.30 Gy/GBq and 0.38 Gy/GBq
Kidneys absorbed dose (80.4 µg PSMA I&T content): 0.24 Gy/GBq
Kidneys absorbed dose (82.0 µg PSMA I&T content): 0.17 Gy/GBq
Kidneys absorbed dose (82.2 µg PSMA I&T content): 0.34 Gy/GBq
Kidneys absorbed dose (82.6 µg PSMA I&T content): 0.29 Gy/GBq
Kidneys absorbed dose (85.3 µg PSMA I&T content): 0.55 Gy/GBq
Kidneys absorbed dose (89.2 µg PSMA I&T content): 0.43 Gy/GBq
Kidneys absorbed dose (90.0 µg PSMA I&T content): 0.35 Gy/GBq
Kidneys absorbed dose (92.6 µg PSMA I&T content): 0.05 Gy/GBq and 0.45 Gy/GBq
Kidneys absorbed dose (99.2 µg PSMA I&T content): 0.57 Gy/GBq
Kidneys absorbed dose (105.1 µg PSMA I&T content): 0.48 Gy/GBq
Kidneys absorbed dose (108.5 µg PSMA I&T content): 0.27 Gy/GBq
Kidneys absorbed dose (110.6 µg PSMA I&T content): 0.64 Gy/GBq
Kidneys absorbed dose (119.1 µg PSMA I&T content): 0.28 Gy/GBq
Lacrimal Glands absorbed dose (72.1 µg PSMA I&T content): 0.19 Gy/GBq and 0.20 Gy/GBq
Lacrimal Glands absorbed dose (76.8 µg PSMA I&T content): 0.08 Gy/GBq
Lacrimal Glands absorbed dose (77.0 µg PSMA I&T content): 0.07 Gy/GBq and 0.06 Gy/GBq
Lacrimal Glands absorbed dose (77.7 µg PSMA I&T content): 0.66 Gy/GBq
Lacrimal Glands absorbed dose (79.0 µg PSMA I&T content): 0.16 Gy/GBq
Lacrimal Glands absorbed dose (79.4 µg PSMA I&T content): 0.63 Gy/GBq
Lacrimal Glands absorbed dose (79.5 µg PSMA I&T content): 0.26 Gy/GBq and 0.47 Gy/GBq
Lacrimal Glands absorbed dose (80.4 µg PSMA I&T content): 0.08 Gy/GBq
Lacrimal Glands absorbed dose (82.0 µg PSMA I&T content): 0.07 Gy/GBq
Lacrimal Glands absorbed dose (82.2 µg PSMA I&T content): 0.54 Gy/GBq
Lacrimal Glands absorbed dose (89.2 µg PSMA I&T content): 0.38 Gy/GBq
Lacrimal Glands absorbed dose (90.0 µg PSMA I&T content): 0.09 Gy/GBq
Lacrimal Glands absorbed dose (92.6 µg PSMA I&T content): 0.05 Gy/GBq and 0.04 Gy/GBq
Lacrimal Glands absorbed dose (105.1 µg PSMA I&T content): 1.19 Gy/GBq
Lacrimal Glands absorbed dose (108.5 µg PSMA I&T content): 0.94 Gy/GBq and 1.09 Gy/GBq
Lacrimal Glands absorbed dose (110.6 µg PSMA I&T content): 0.68 Gy/GBq
Lacrimal Glands absorbed dose (119.1 µg PSMA I&T content): 0.62 Gy/GBq
Liver absorbed dose (68.9 µg PSMA I&T content): 0.04 Gy/GBq
Liver absorbed dose (71.6 µg PSMA I&T content): 0.02 Gy/GBq
Liver absorbed dose (72.1 µg PSMA I&T content): 0.02 Gy/GBq
Liver absorbed dose (76.8 µg PSMA I&T content): 0.03 Gy/GBq
Liver absorbed dose (77.0 µg PSMA I&T content): 0.06 Gy/GBq and 0.02 Gy/GBq
Liver absorbed dose (77.7 µg PSMA I&T content): 0.04 Gy/GBq
Liver absorbed dose (79.0 µg PSMA I&T content): 0.03 Gy/GBq
Liver absorbed dose (79.4 µg PSMA I&T content): 0.03 Gy/GBq
Liver absorbed dose (79.5 µg PSMA I&T content): 0.03 Gy/GBq and 0.07 Gy/GBq
Liver absorbed dose (80.4 µg PSMA I&T content): 0.10 Gy/GBq
Liver absorbed dose (82.0 µg PSMA I&T content): 0.05 Gy/GBq
Liver absorbed dose (82.2 µg PSMA I&T content): 0.02 Gy/GBq
Liver absorbed dose (82.6 µg PSMA I&T content): 0.02 Gy/GBq
Liver absorbed dose (85.3 µg PSMA I&T content): 0.02 Gy/GBq
Liver absorbed dose (89.2 µg PSMA I&T content): 0.08 Gy/GBq
Liver absorbed dose (90.0 µg PSMA I&T content): 0.04 Gy/GBq
Liver absorbed dose (92.6 µg PSMA I&T content): 0.09 Gy/GBq and 0.01 Gy/GBq
Liver absorbed dose (99.2 µg PSMA I&T content): 0.04 Gy/GBq
Liver absorbed dose (105.1 µg PSMA I&T content): 0.06 Gy/GBq
Liver absorbed dose (108.5 µg PSMA I&T content): 0.07 Gy/GBq and 0.05 Gy/GBq
Liver absorbed dose (110.6 µg PSMA I&T content): 0.03 Gy/GBq
Liver absorbed dose (119.1 µg PSMA I&T content): 0.02 Gy/GBq
Salivary Glands absorbed dose (68.9 µg PSMA I&T content): 0.11 Gy/GBq
Salivary Glands absorbed dose (71.6 µg PSMA I&T content): 0.16 Gy/GBq
Salivary Glands absorbed dose (72.1 µg PSMA I&T content): 0.06 Gy/GBq and 0.00 Gy/GBq
Salivary Glands absorbed dose (76.8 µg PSMA I&T content): 0.11 Gy/GBq
Salivary Glands absorbed dose (77.0 µg PSMA I&T content): 0.19 Gy/GBq and 0.10 Gy/GBq
Salivary Glands absorbed dose (77.7 µg PSMA I&T content): 0.04 Gy/GBq
Salivary Glands absorbed dose (79.0 µg PSMA I&T content): 0.15 Gy/GBq
Salivary Glands absorbed dose (79.4 µg PSMA I&T content): 0.12 Gy/GBq
Salivary Glands absorbed dose (79.5 µg PSMA I&T content): 0.26 Gy/GBq and 0.19 Gy/GBq
Salivary Glands absorbed dose (80.4 µg PSMA I&T content): 0.20 Gy/GBq
Salivary Glands absorbed dose (82.0 µg PSMA I&T content): 0.32 Gy/GBq
Salivary Glands absorbed dose (82.2 µg PSMA I&T content): 0.03 Gy/GBq
Salivary Glands absorbed dose (82.6 µg PSMA I&T content): 0.16 Gy/GBq
Salivary Glands absorbed dose (85.3 µg PSMA I&T content): 0.09 Gy/GBq
Salivary Glands absorbed dose (89.2 µg PSMA I&T content): 0.39 Gy/GBq
Salivary Glands absorbed dose (90.0 µg PSMA I&T content): 0.80 Gy/GBq
Salivary Glands absorbed dose (92.6 µg PSMA I&T content): 0.13 Gy/GBq and 0.14 Gy/GBq
Salivary Glands absorbed dose (99.2 µg PSMA I&T content): 0.27 Gy/GBq
Salivary Glands absorbed dose (105.1 µg PSMA I&T content): 0.18 Gy/GBq
Salivary Glands absorbed dose (108.5 µg PSMA I&T content): 0.29 Gy/GBq and 0.10 Gy/GBq
Salivary Glands absorbed dose (110.6 µg PSMA I&T content): 0.03 Gy/GBq
Salivary Glands absorbed dose (119.1 µg PSMA I&T content): 0.28 Gy/GBq
